In PubChem BioAssay (NCI):
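48-hour exposure; five concentrations; linearly interpolated endpoints. The concentration for full growth arrest is given as TGI.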

Columns and labels:
Assay in all cases: NCI anticancer screen, dose series, 48 h
[1] = tested on: HCT-116 colon
[2] = tested on: HL-60(TB) leukemia
[3] = tested on: IGROV1 ovarian
[4] = tested on: KM12 colon
[5] = tested on: LOX IMVI melanoma
[6] = tested on: M14 melanoma
[7] = tested on: MDA-MB-231 breast
[8] = tested on: MDA-MB-435
[9] = tested on: NCI-H23 lung
[10] = tested on: NCI-H460 lung
[11] = tested on: NCI-H522 lung
[12] = tested on: NCI/ADR-RES ovarian
[13] = tested on: OVCAR-8 ovarian
[14] = tested on: SF-539 CNS
[15] = tested on: SNB-75 CNS
[16] = tested on: SW-620 colon
[17] = tested on: T-47D breast
[18] = tested on: TK-10 renal

Compound	TGI [1]	TGI [2]	TGI [3]	TGI [4]	TGI [5]	TGI [6]	TGI [7]	TGI [8]	TGI [9]	TGI [10]	TGI [11]	TGI [12]	TGI [13]	TGI [14]	TGI [15]	TGI [16]	TGI [17]	TGI [18]
CCc1ccc(CCC(=O)O)nc1	> 100 µM	> 100 µM	> 100 µM	> 100 µM	> 100 µM	> 100 µM	> 100 µM	> 100 µM	> 100 µM	> 100 µM	> 100 µM	> 100 µM	> 100 µM	> 100 µM	> 100 µM	> 100 µM	> 100 µM	> 100 µM
COc1ccc(-c2nc(N(C)C)c3ccccc3n2)cc1	17.4 µM	32.2 µM	> 100 µM	68.8 µM	28.8 µM	44.2 µM	96.5 µM	33.8 µM	69 µM	26.9 µM	27.8 µM	36.7 µM	> 100 µM	42.8 µM	40.4 µM	63.5 µM	49.1 µM	65.8 µM
OCCOCCN1CCN(c2nc(N3CCCC3)c3nc(Cl)c(NCc4ccccc4)nc3n2)CC1	26.4 µM	29 µM	33.9 µM	26.8 µM	23 µM	24.8 µM	32.7 µM	26 µM	31.4 µM	24.7 µM	31.5 µM	31.1 µM	32.2 µM	88.3 µM	36.5 µM	44.6 µM	30.6 µM	25 µM
Cn1c(N(CCO)CCO)cnc1[N+](=O)[O-]	> 100 µM	> 100 µM	> 100 µM	> 100 µM	> 100 µM	> 100 µM	> 100 µM	> 100 µM	> 100 µM	> 100 µM	> 100 µM	> 100 µM	> 100 µM	> 100 µM	> 100 µM	> 100 µM	> 100 µM	> 100 µM
